SMILES strings stand for the structures. Where two headings read alike, the source gives them in different places.

For one test, the target named is human Nav1.7 (Homo sapiens, UniProt Q15858). The test is described as follows: FLIPR or FLIPR TETRA sodium dye assay with KCl and test article pre-incubation. Format: cell-based.
The target in another test is hNav1.7 (Homo sapiens, UniProt Q15858). The test is described as follows: Electrophysiology (EP) assay, whole-cell patch clamp. Format: cell-based. Particulars: for Kd: resting block dissociation constant, read-out: EP Nav1.7 Kr. As for the experimental part:
The hNav1.7 expressing HEK-293 cells were plated on 35 mm culture dishes pre-coated with poly-D-lysine in standard DMEM culture media (Mediatech, Inc., Herndon, Va.) and incubated in a 5% CO2 incubator at 37° C. Cultured cells were used approximately 12-48 hours after plating.
On the day of experimentation, the 35 mm dish was placed on the stage of an inverted microscope equipped with a perfusion system that continuously perfuses the culture dish with fresh recording media. A gravity driven superfusion system was used to apply test solutions directly to the cell under evaluation. This system consists of an array of glass pipette glass connected to a motorized horizontal translator. The outlet of the shooter was positioned approximately 100 μm from the cell of interest.
Whole cell currents were recorded using the whole-cell patch clamp configuration using an Axopatch 200B amplifier (Axon Instruments, Foster City Calif.), 1322A A/D converter (Axon Instruments) and pClamp software (v. 8; Axon Instruments) and stored on a personal computer. Gigaseals were formed and the whole-cell configuration was established in voltage clamp mode, and membrane currents generated by hNav1.7 were recorded in gap-free mode. Borosilicate glass pipettes have resistance values between 1.5 and 2.0 MΩ when filled with pipette solution and series resistance (<5 MΩ) was compensated 75-80%. Signals were sampled at 50 kHz and low pass filtered at 3 kHz.
After establishing the whole-cell configuration in voltage clamp mode, voltage protocols were run to establish the 1) test potential, 2) holding potential, and 3) the conditioning potential for each cell.
After establishing the whole-cell configuration in voltage clamp mode, a standard I-V protocol was run to determine the potential at which the maximal current (Imax) is elicited. This potential was the test potential (Vt). To determine a conditioning potential at which 100% of channels were in the inactivated state, a standard steady-state inactivation (SSIN) protocol was run using a series of fifteen 100 ms-long depolarizing prepulses, incrementing in 10 mV steps, immediately followed by a 5 ms testing pulse, Vt, to Vmax. This protocol also permitted determination of the holding potential at which all channels are in the resting state.
For compounds causing significant retardation of recovery from inactivation, an estimate of the affinity for the inactivated state of the channel (Ki) was generated using the following protocol. From the negative, no residual inactivation, holding potential, the cell was depolarized to the conditioning voltage for 2-5 seconds, returned to the negative holding potential for 10-20 ms to relieve fast inactivation and then depolarized to the test potential for ˜15 ms. This voltage protocol was repeated every 10-15 seconds, first to establish a baseline in the absence of the test compound, then in the presence of the test compound.
After a stable baseline was established, the test compound was applied and block of the current elicited by the test pulse assessed. In some cases, multiple cumulative concentrations were applied to identify a concentration that blocked between 40-60% of this current. Washout of the compound was attempted by superfusing with control solution once steady-state block was observed. An estimate of the Ki was calculated as follows: Ki=[drug]*{FR/(1−FR)}, Eq. 1 where [drug] is the concentration of a drug, and FR=I(after drug)/I(control), Eq. 2 where I is the peak current amplitude. If multiple concentrations were used, Ki was determined from the fit of a logistic equation to FRs plotted against corresponding drug concentrations.
In the alternative, the voltage clamp protocol to examine hNav1.7 currents was as follows. […]

The mark [1] stands for this setting: sodium dye assay with KCl, recombinant Nav1.7/HEK293 cells, read-out: FLIPR Nav1.7 IC50 (μM) ± SEM.
Setting [2] is: affinity for the inactivated state of the channel, HEK-293 cells, spread on the next grid line, read-out: EP Nav1.7 Kj.
[3] abbreviates: HEK-293 cells, spread on the next grid line.

Chain of human Nav1.7 (Q15858 1-1977 isoform Q15858-3): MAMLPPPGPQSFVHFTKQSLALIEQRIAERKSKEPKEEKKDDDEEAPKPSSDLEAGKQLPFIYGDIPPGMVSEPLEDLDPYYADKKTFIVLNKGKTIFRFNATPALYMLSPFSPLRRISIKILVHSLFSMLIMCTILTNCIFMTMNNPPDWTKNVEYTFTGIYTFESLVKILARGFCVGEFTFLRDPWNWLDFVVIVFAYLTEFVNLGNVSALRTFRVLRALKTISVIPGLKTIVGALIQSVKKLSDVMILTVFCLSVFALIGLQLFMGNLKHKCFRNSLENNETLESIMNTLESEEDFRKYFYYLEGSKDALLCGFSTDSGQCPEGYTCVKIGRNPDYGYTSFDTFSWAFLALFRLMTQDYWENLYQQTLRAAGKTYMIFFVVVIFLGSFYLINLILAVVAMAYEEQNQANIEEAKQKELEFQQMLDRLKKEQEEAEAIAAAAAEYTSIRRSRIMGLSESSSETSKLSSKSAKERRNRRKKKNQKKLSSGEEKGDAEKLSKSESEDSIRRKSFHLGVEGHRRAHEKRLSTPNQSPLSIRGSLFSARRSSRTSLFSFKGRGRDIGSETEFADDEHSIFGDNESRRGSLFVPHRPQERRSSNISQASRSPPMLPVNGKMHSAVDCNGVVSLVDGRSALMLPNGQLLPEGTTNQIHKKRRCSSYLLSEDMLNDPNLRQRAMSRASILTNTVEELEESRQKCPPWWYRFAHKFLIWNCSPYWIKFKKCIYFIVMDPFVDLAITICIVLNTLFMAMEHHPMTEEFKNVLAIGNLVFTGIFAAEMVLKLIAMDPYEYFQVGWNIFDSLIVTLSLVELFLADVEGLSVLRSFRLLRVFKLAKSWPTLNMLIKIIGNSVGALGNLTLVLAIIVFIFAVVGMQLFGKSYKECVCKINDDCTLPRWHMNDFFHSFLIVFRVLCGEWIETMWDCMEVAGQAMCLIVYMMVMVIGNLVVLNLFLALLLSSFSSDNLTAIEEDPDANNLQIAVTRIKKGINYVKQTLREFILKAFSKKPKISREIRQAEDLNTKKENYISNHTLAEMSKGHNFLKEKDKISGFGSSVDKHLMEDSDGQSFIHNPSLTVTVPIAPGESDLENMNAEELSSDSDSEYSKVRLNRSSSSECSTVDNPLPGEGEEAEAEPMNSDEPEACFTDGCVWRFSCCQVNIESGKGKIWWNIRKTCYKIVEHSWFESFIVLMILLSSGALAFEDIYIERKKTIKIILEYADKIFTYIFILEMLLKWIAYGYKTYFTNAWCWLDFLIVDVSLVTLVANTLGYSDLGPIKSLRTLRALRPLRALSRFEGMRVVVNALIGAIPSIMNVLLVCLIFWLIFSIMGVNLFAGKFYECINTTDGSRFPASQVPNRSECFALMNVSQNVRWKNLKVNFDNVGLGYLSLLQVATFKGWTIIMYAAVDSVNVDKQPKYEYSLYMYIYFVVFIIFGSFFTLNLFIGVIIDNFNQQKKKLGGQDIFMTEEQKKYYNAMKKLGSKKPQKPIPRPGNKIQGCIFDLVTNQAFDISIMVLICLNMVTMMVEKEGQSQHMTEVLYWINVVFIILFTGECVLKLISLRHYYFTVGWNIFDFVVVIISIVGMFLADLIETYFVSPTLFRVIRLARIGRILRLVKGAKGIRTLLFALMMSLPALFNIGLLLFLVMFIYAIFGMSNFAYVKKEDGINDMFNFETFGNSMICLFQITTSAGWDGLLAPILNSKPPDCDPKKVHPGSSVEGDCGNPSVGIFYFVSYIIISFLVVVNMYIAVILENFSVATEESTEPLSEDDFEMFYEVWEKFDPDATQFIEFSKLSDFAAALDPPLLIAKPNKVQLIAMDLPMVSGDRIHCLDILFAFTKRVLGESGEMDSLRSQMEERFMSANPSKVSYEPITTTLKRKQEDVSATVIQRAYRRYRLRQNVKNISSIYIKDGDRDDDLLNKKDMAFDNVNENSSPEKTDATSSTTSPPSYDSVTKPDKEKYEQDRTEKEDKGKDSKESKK
Chain of hNav1.7 (Q15858 1-1977 isoform Q15858-3): as above

With `CCOC(=O)c1nc(-c2ccc(Oc3ccccc3)cc2)c2ccccc2n1` [Compound 3, ethyl 4-(4-phenoxyphenyl)quinazoline-2-carboxylate], the IC50 at human Nav1.7 (setting [1]) stood at 1.57 µM.

Regarding `O=C(O)c1nc(-c2ccc(Oc3ccccc3)cc2)c2ccccc2n1` [Compound 4, 4-(4-phenoxyphenyl)quinazoline-2-carboxylic acid], the IC50 on human Nav1.7 (setting [1]) was greater than 20 µM.

As for `NC(=O)c1nc(-c2ccc(Oc3ccccc3)cc2)c2ccccc2n1` [Compound 5, 4-(4-phenoxyphenyl)quinazoline-2-carboxamide], the IC50 on human Nav1.7 (setting [1]) is 0.097 µM. The Ki at hNav1.7 (setting [2]) was determined as 0.12 µM.

As for `OC[C@@H](O)c1nc(-c2ccc(Oc3ccc(F)cc3)cc2)c2ccccc2n1` [Compound 10, (S)-1-(4-(4-(4-fluorophenoxy)phenyl)quinazolin-2-yl)ethane-1,2-diol], the 50% inhibitory concentration (IC50) at human Nav1.7 (setting [1]) is 0.849 µM.

For `NC(=O)[C@H](CO)Nc1nc(-c2ccc(Oc3ccc(F)cc3)cc2)c2ccccc2n1` [Compound 13a, (S)-2-{4-[4-(4-fluorophenoxy)phenyl]quinazolin-2-ylamino}-3-hydroxy-propionamide], the 50% inhibitory concentration (IC50) on human Nav1.7 (setting [1]) was 0.836 µM. Moreover, at hNav1.7 (setting [2]), the Ki worked out at 0.74 µM.

On to `O=C1CN(c2nc(-c3ccc(Oc4ccc(F)cc4)cc3)c3ccccc3n2)CCN1` [Compound 13b, 4-(4-(4-(4-fluorophenoxy)phenyl)quinazolin-2-yl)piperazin-2-one], for which the half-inhibitory concentration (IC50) at human Nav1.7 (setting [1]) was found to be 0.839 µM.

With `OCCNc1nc(-c2ccc(Oc3ccc(F)cc3)cc2)c2ccccc2n1` [Compound 13c, 2-((4-(4-(4-fluorophenoxy)phenyl)quinazolin-2-yl)amino)ethanol], the IC50 at human Nav1.7 (setting [1]) amounted to 0.369 µM.

In the case of `CN(C)CCNc1nc(-c2ccc(Oc3ccc(F)cc3)cc2)c2ccccc2n1` [Compound 13d, N^1-(4-(4-(4-fluorophenoxy)phenyl)quinazolin-2-yl)-N^2,N^2-dimethylethane-1,2-diamine], the IC50 on human Nav1.7 (setting [1]) turned out to be 0.317 µM.

Take `Nc1nc(-c2ccc(Oc3ccc(F)cc3)cc2)c2ccccc2n1` [Compound 13e, 4-(4-(4-fluorophenoxy)phenyl)quinazolin-2-amine]: the half-inhibitory concentration (IC50) at human Nav1.7 (setting [1]) was found to be 0.426 µM.

On to `COC(=O)[C@@H]1CCCN1c1nc(-c2ccc(Oc3ccc(F)cc3)cc2)c2ccccc2n1` [Compound 13f, (S)-methyl 1-(4-(4-(4-fluorophenoxy)phenyl)-quinazolin-2-yl)pyrrolidine-2-carboxylate], for which, on human Nav1.7 (setting [1]), the IC50 was found to be 0.642 µM. On hNav1.7 (setting [2]), the Ki came to 0.62 µM. In addition, the Kd at hNav1.7 (setting [3]) was found to be 23.9 µM.

With `CN(N)c1nc(-c2ccc(Oc3ccc(F)cc3)cc2)c2ccccc2n1` [Compound 13g, 4-(4-(4-fluorophenoxy)phenyl)-2-(1-methylhydrazinyl)quinazoline], on human Nav1.7 (setting [1]), the IC50 came to 0.309 µM.

For the compound `CCN1CCN(c2nc(-c3ccc(Oc4ccc(F)cc4)cc3)c3ccccc3n2)CC1` [Compound 13h, 2-(4-ethylpiperazin-1-yl)-4-(4-(4-fluorophenoxy)phenyl)quinazoline], the IC50 on human Nav1.7 (setting [1]) was found to be 0.236 µM.

Take `OC1CCN(c2nc(-c3ccc(Oc4ccc(F)cc4)cc3)c3ccccc3n2)CC1` [Compound 13i, 1-(4-(4-(4-fluorophenoxy)phenyl)quinazolin-2-yl)piperidin-4-ol]: the IC50 on human Nav1.7 (setting [1]) worked out at 0.428 µM.

For `OCCN1CCN(c2nc(-c3ccc(Oc4ccc(F)cc4)cc3)c3ccccc3n2)CC1` [Compound 13j, 2-(4-(4-(4-(4-fluorophenoxy)phenyl)quinazolin-2-yl)piperazin-1-yl)ethanol], at human Nav1.7 (setting [1]), the IC50 was 0.104 µM.

On to `CN1CCN(c2nc(-c3ccc(Oc4ccc(F)cc4)cc3)c3ccccc3n2)CC1` [Compound 13k, 4-(4-(4-fluorophenoxy)phenyl)-2-(4-methylpiperazin-1-yl)quinazoline], for which, on human Nav1.7 (setting [1]), the 50% inhibitory concentration (IC50) was found to be 0.418 µM. In addition, the Ki at hNav1.7 (setting [2]) came out at 0.07 µM. The Kd on hNav1.7 (setting [3]) came to 2.09 µM.

As for `NC(=O)[C@@H]1CCCN1c1nc(-c2ccc(Oc3ccc(F)cc3)cc2)c2ccccc2n1` [Compound 13l, (S)-1-(4-(4-(4-fluorophenoxy)phenyl)quinazolin-2-yl)pyrrolidine-2-carboxamide], the IC50 on human Nav1.7 (setting [1]) amounted to 0.105 µM. Further, on hNav1.7 (setting [2]), the Ki came to 0.19 µM.

Take `COC(=O)[C@@H]1C[C@@H](O)CN1c1nc(-c2ccc(Oc3ccc(F)cc3)cc2)c2ccccc2n1` [Compound 13m, (2S,4R)-methyl 1-(4-(4-(4-fluorophenoxy)phenyl)quinazolin-2-yl)-4-hydroxypyrrolidine-2-carboxylate]: the IC50 on human Nav1.7 (setting [1]) came out at 0.833 µM.

With `CNc1nc(-c2ccc(Oc3ccc(F)cc3)cc2)c2ccccc2n1` [Compound 13n, 4-(4-(4-fluorophenoxy)phenyl)-N-methylquinazolin-2-amine], the IC50 at human Nav1.7 (setting [1]) was 0.294 µM.

As to `Fc1ccc(Oc2ccc(-c3nc(NCCCn4ccnc4)nc4ccccc34)cc2)cc1` [Compound 13o, N-(3-(1H-imidazol-1-yl)propyl)-4-(4-(4-fluorophenoxy)phenyl)quinazolin-2-amine], the IC50 on human Nav1.7 (setting [1]) came out at 0.325 µM.

Turning to `CN(C)CCCNc1nc(-c2ccc(Oc3ccc(F)cc3)cc2)c2ccccc2n1` [Compound 13p, N^1-(4-(4-(4-fluorophenoxy)phenyl)quinazolin-2-yl)-N^3,N^3-dimethylpropane-1,3-diamine], at human Nav1.7 (setting [1]), the IC50 came out at 0.205 µM.

For `OC[C@H](O)CNc1nc(-c2ccc(Oc3ccc(F)cc3)cc2)c2ccccc2n1` [Compound 13q, (R)-3-((4-(4-(4-fluorophenoxy)phenyl)quinazolin-2-yl)amino)propane-1,2-diol], at human Nav1.7 (setting [1]), the IC50 turned out to be 0.071 µM. At hNav1.7 (setting [2]), the Ki amounted to 0.22 µM.

Take `OC[C@@H](O)CNc1nc(-c2ccc(Oc3ccc(F)cc3)cc2)c2ccccc2n1` [Compound 13r, (S)-3-((4-(4-(4-fluorophenoxy)phenyl)quinazolin-2-yl)amino)propane-1,2-diol]: at human Nav1.7 (setting [1]), the IC50 is 0.32 µM.

Regarding `NC(=O)C[C@H](Nc1nc(-c2ccc(Oc3ccc(F)cc3)cc2)c2ccccc2n1)C(N)=O` [Compound 13s, (S)-2-((4-(4-(4-fluorophenoxy)phenyl)quinazolin-2-yl)amino)succinamide], the IC50 at human Nav1.7 (setting [1]) is 0.313 µM.

`CN1[C@@H]2CCC[C@H]1C[C@@H](Nc1nc(-c3ccc(Oc4ccc(F)cc4)cc3)c3ccccc3n1)C2` [Compound 13t, 4-(4-(4-fluorophenoxy)phenyl)-N-((1R,3S,5S)-9-methyl-9-azabicyclo[3.3.1]nonan-3-yl)quinazolin-2-amine] registered an IC50 on human Nav1.7 of 0.228 µM. Also, at hNav1.7, the Ki was found to be 0.02 µM.

For `OCC(CO)Nc1nc(-c2ccc(Oc3ccc(F)cc3)cc2)c2ccccc2n1` [Compound 13u, 2-((4-(4-(4-fluorophenoxy)phenyl)quinazolin-2-yl)amino)propane-1,3-diol], the concentration for half-maximal inhibition (IC50) at human Nav1.7 (setting [1]) was determined as 0.208 µM. On hNav1.7 (setting [2]), the Ki is 0.64 µM. The Kd at hNav1.7 (setting [3]) stood at 55.3 µM.

For `O=C1NCCN1CCNc1nc(-c2ccc(Oc3ccc(F)cc3)cc2)c2ccccc2n1` [Compound 13v, 1-(2-((4-(4-(4-fluorophenoxy)phenyl)quinazolin-2-yl)amino)ethyl)imidazolidin-2-one], the IC50 at human Nav1.7 (setting [1]) is 0.204 µM. The Ki on hNav1.7 (setting [2]) turned out to be 0.46 µM. The Kd on hNav1.7 (setting [3]) was 23.7 µM.

For the compound `NN(CCO)c1nc(-c2ccc(Oc3ccc(F)cc3)cc2)c2ccccc2n1` [Compound 13w, 2-(1-(4-(4-(4-fluorophenoxy)phenyl)quinazolin-2-yl)hydrazinyl)ethanol], at human Nav1.7 (setting [1]), the IC50 came to 0.07 µM.

For `NC(=O)CNc1nc(-c2ccc(Oc3ccc(F)cc3)cc2)c2ccccc2n1` [Compound 13x, 2-((4-(4-(4-fluorophenoxy)phenyl)quinazolin-2-yl)amino)acetamide], at human Nav1.7 (setting [1]), the IC50 is greater than 20 µM.

On to `CCOc1nc(-c2ccc(Oc3ccc(F)cc3)cc2)c2ccccc2n1` [Compound 13y, 2-ethoxy-4-(4-(4-fluorophenoxy)phenyl)-quinazoline], for which, at human Nav1.7 (setting [1]), the IC50 stood at 0.995 µM.

For `Fc1ccc(Oc2ccc(-c3nc(Oc4ccccn4)nc4ccccc34)cc2)cc1` [Compound 13z, 4-(4-(4-fluorophenoxy)phenyl)-2-(pyridin-2-yloxy)quinazoline], the IC50 at human Nav1.7 (setting [1]) was determined as 1.91 µM.

Source of the values: patent publication US9045435B2, “Quinazoline compounds as sodium channel blockers” (Purdue Pharma, L.P., priority 2010, dated 2015).
